Laboratory results published in US20050112099A1, “Tumor antigen BFA5 for prevention and / or treatment of cancer” (Aventis Pasteur, Ltd., priority 2003, published 2005).
Where no end group is shown, it is not given here.

Assays:
[1] = tested on: peptide-loaded T2 cells; test: 51Cr-release CTL assay using peptide-loaded T2 cells; format: cell-based, human; conditions: listing of the peptide is the result
[2] = tested on: HLA-A*0201 human T cells; test: IFN-γ ELISPOT of human T-cell cultures activated with BFA5 peptides; format: cell-based; conditions: listing of the peptide is the result
[3] = Rabbit immunization with BFA5 peptides, IgG titer; format: in vivo; conditions: for IgG titer × 10^5 (after second Immunization): KLH-coupled peptide with Freund's Incomplete Adjuvant, two weeks later; for IgG titer × 10^5 (after first Immunization): peptide emulsion with Freund's Complete Adjuvant
Procedure: Polyclonal antisera were generated against the following series of 22- to 23-mer peptides of BFA5:
Prebleed samples from rabbits were processed and stored at −20° C. Rabbits were immunized as follows: 1) the peptides were administered as an emulsion with Freund's Complete Adjuvant (FCA); and, 2) two weeks later, the peptides were coupled with Keyhole-Limpet Hemocyanin (KLH)-coupled and administered as an emulsion with Freund's Incomplete Adjuvant FIA.

With SLTPLLLSI as the substance, how does the “BFA5 peptides inducing CTL lysis of pulsed cells” value (“BFA5 peptides inducing CTL lysis” below) ([1]; Donor AP31) read?
The value was “SLTPLLLSI”.

What about the “BFA5 peptides eliciting high IFN-γ release (>200 spots/100,000 cells)” value ([2]; Donor AP10) of the same substance?
The value was “SLTPLLLSI”.

What about the “BFA5 peptides eliciting high IFN-γ release (>200 spots/100,000 cells)” value ([2]; Donor AP31) of the same substance?
The value was “SLTPLLLSI”.

Which “BFA5 peptides eliciting high IFN-γ release (>200 spots/100,000 cells)” value ([2]; Donor AP10) does the source give for ILKEKNAEL here?
Its value is “ILKEKNAEL”.

What about the “BFA5 peptides eliciting high IFN-γ release (>200 spots/100,000 cells)” value ([2]; Donor AP31) of the same substance?
The value was “ILKEKNAEL”.

For KVMEINREV, which “BFA5 peptides eliciting high IFN-γ release (>200 spots/100,000 cells)” value ([2]; Donor AP10) is on record?
Its value is “KVMEINREV”.

With SVPNKALEL as the substance, how does the “BFA5 peptides eliciting high IFN-γ release (>200 spots/100,000 cells)” value ([2]; Donor AP10) read?
Its value is “SVPNKALEL”.

What does the source list for QLQSKNMWL?
BFA5 peptides inducing CTL lysis of pulsed cells ([1]; Donor AP31): QLQSKNMWL; BFA5 peptides eliciting high IFN-γ release (>200 spots/100,000 cells) ([2]; Donor AP10): QLQSKNMWL; BFA5 peptides eliciting high IFN-γ release (>200 spots/100,000 cells) ([2]; Donor AP31): QLQSKNMWL

With TVSQKDVCL as the substance, how does the “BFA5 peptides eliciting high IFN-γ release (>200 spots/100,000 cells)” value ([2]; Donor AP10) read?
The value was “TVSQKDVCL”.

What does the source list for “KLH-AENTMLTSKLKEKQDKEILEAEI ({KLH}-AENTMLTSKLKEKQDKEILEAEI) [CLP 2981]”?
IgG titer × 10^5 (after second Immunization) ([3]; Rb1): 256 × 10^5; IgG titer × 10^5 (after first Immunization) ([3]; Rb1): 8 × 10^5; IgG titer × 10^5 (after second Immunization) ([3]; Rb2): 64 × 10^5; IgG titer × 10^5 (after first Immunization) ([3]; Rb2): 4 × 10^5

With KCTALMLAV as the substance, how does the “BFA5 peptides eliciting high IFN-γ release (>200 spots/100,000 cells)” value ([2]; Donor AP10) read?
Its value is “KCTALMLAV”.

For KSQEPAFHI, which “BFA5 peptides eliciting high IFN-γ release (>200 spots/100,000 cells)” value ([2]; Donor AP31) is on record?
Its value is “KSQEPAFHI”.

With AELQMTLKL as the substance, how does the “BFA5 peptides inducing CTL lysis” value ([1]; Donor AP10) read?
The value was “AELQMTLKL”.

What about the “BFA5 peptides inducing CTL lysis” value ([1]; Donor AP31) of the same substance?
The value was “AELQMTLKL”.

What about the “BFA5 peptides eliciting high IFN-γ release (>200 spots/100,000 cells)” value ([2]; Donor AP10) of the same substance?
The value was “AELQMTLKL”.

For “KLH-RLTLNQEEEKRRNADILNEKIRE ({KLH}-RLTLNQEEEKRRNADILNEKIRE) [CLP 2980]”, which “IgG titer × 10^5 (after second Immunization)” value ([3]; Rb1) is on record?
The value was 1024 × 10^5.

And the “IgG titer × 10^5 (after first Immunization)” value ([3]; Rb1)?
Its value is 25 × 10^5.

What about the “IgG titer × 10^5 (after second Immunization)” value ([3]; Rb2) of the same substance?
The value was 128 × 10^5.

What about the “IgG titer × 10^5 (after first Immunization)” value ([3]; Rb2) of the same substance?
Its value is 12 × 10^5.

Which “BFA5 peptides eliciting high IFN-γ release (>200 spots/100,000 cells)” value ([2]; Donor AP31) does the source give for GVTAEHYAV here?
The value was “GVTAEHYAV”.

Which results are given for QIMEYIRKL?
BFA5 peptides inducing CTL lysis of pulsed cells ([1]; Donor AP31): QIMEYIRKL; BFA5 peptides eliciting high IFN-γ release (>200 spots/100,000 cells) ([2]; Donor AP10): QIMEYIRKL; BFA5 peptides eliciting high IFN-γ release (>200 spots/100,000 cells) ([2]; Donor AP31): QIMEYIRKL

Which “IgG titer × 10^5 (after second Immunization)” value ([3]; Rb1) does the source give for “KLH-TSEKFTWPAKGRPRKIAWEKKED ({KLH}-TSEKFTWPAKGRPRKIAWEKKED) [CLP 2978]” here?
Its value is 64 × 10^5.

And the “IgG titer × 10^5 (after first Immunization)” value ([3]; Rb1)?
Its value is 25/25 × 10^5.

What about the “IgG titer × 10^5 (after second Immunization)” value ([3]; Rb2) of the same substance?
The value was 256 × 10^5.

What about the “IgG titer × 10^5 (after first Immunization)” value ([3]; Rb2) of the same substance?
Its value is 25/25 × 10^5.

With SLSKILDTV as the substance, how does the “BFA5 peptides inducing CTL lysis” value ([1]; Donor AP31) read?
Its value is “SLSKILDTV”.

What about the “BFA5 peptides eliciting high IFN-γ release (>200 spots/100,000 cells)” value ([2]; Donor AP10) of the same substance?
Its value is “SLSKILDTV”.

What about the “BFA5 peptides eliciting high IFN-γ release (>200 spots/100,000 cells)” value ([2]; Donor AP31) of the same substance?
Its value is “SLSKILDTV”.

For SVPNKAFEL, which “BFA5 peptides eliciting high IFN-γ release (>200 spots/100,000 cells)” value ([2]; Donor AP10) is on record?
The value was “SVPNKAFEL”.

What does the source list for SIPTKALEL?
BFA5 peptides inducing CTL lysis of pulsed cells ([1]; Donor AP31): SIPTKALEL; BFA5 peptides eliciting high IFN-γ release (>200 spots/100,000 cells) ([2]; Donor AP10): SIPTKALEL

With NLNYAGDAL as the substance, how does the “BFA5 peptides eliciting high IFN-γ release (>200 spots/100,000 cells)” value ([2]; Donor AP10) read?
Its value is “NLNYAGDAL”.

What about the “BFA5 peptides eliciting high IFN-γ release (>200 spots/100,000 cells)” value ([2]; Donor AP31) of the same substance?
The value was “NLNYAGDAL”.

With KVSIPTKAL as the substance, how does the “BFA5 peptides inducing CTL lysis” value ([1]; Donor AP31) read?
The value was “KVSIPTKAL”.

What about the “BFA5 peptides eliciting high IFN-γ release (>200 spots/100,000 cells)” value ([2]; Donor AP10) of the same substance?
Its value is “KVSIPTKAL”.

What does the source list for MLKLEIATL?
BFA5 peptides inducing CTL lysis of pulsed cells ([1]; Donor AP31): MLKLEIATL; BFA5 peptides eliciting high IFN-γ release (>200 spots/100,000 cells) ([2]; Donor AP10): MLKLEIATL; BFA5 peptides eliciting high IFN-γ release (>200 spots/100,000 cells) ([2]; Donor AP31): MLKLEIATL

With VFAADICGV as the substance, how does the “BFA5 peptides eliciting high IFN-γ release (>200 spots/100,000 cells)” value ([2]; Donor AP31) read?
The value was “VFAADICGV”.

Which results are given for ATCGMKVSI?
BFA5 peptides inducing CTL lysis of pulsed cells ([1]; Donor AP10): ATCGMKVSI; BFA5 peptides eliciting high IFN-γ release (>200 spots/100,000 cells) ([2]; Donor AP10): ATCGMKVSI

With MLKKEIAML as the substance, how does the “BFA5 peptides eliciting high IFN-γ release (>200 spots/100,000 cells)” value ([2]; Donor AP31) read?
Its value is “MLKKEIAML”.

For ALRIQDIEL, which “BFA5 peptides eliciting high IFN-γ release (>200 spots/100,000 cells)” value ([2]; Donor AP10) is on record?
Its value is “ALRIQDIEL”.

Which results are given for NLVDVYGNM?
BFA5 peptides inducing CTL lysis of pulsed cells ([1]; Donor AP10): NLVDVYGNM; BFA5 peptides eliciting high IFN-γ release (>200 spots/100,000 cells) ([2]; Donor AP10): NLVDVYGNM

For “KLH-MTKRKKTINLNIQDAQKRTALHW ({KLH}-MTKRKKTINLNIQDAQKRTALHW) [CLP 2977]”, which “IgG titer × 10^5 (after second Immunization)” value ([3]; Rb1) is on record?
The value was 256 × 10^5.

What about the “IgG titer × 10^5 (after first Immunization)” value ([3]; Rb1) of the same substance?
The value was 25 × 10^5.

And the “IgG titer × 10^5 (after second Immunization)” value ([3]; Rb2)?
Its value is 64 × 10^5.

And the “IgG titer × 10^5 (after first Immunization)” value ([3]; Rb2)?
The value was 6 × 10^5.

Which results are given for “KLH-DEILPSESKQKDYEENSWDTESL ({KLH}-DEILPSESKQKDYEENSWDTESL) [CLP 2979]”?
IgG titer × 10^5 (after second Immunization) ([3]; Rb1): 256 × 10^5; IgG titer × 10^5 (after first Immunization) ([3]; Rb1): 12 × 10^5; IgG titer × 10^5 (after second Immunization) ([3]; Rb2): 512 × 10^5; IgG titer × 10^5 (after first Immunization) ([3]; Rb2): 25 × 10^5

Which “BFA5 peptides eliciting high IFN-γ release (>200 spots/100,000 cells)” value ([2]; Donor AP10) does the source give for AVYSEILSV here?
Its value is “AVYSEILSV”.

With VLKKKLSEA as the substance, how does the “BFA5 peptides eliciting high IFN-γ release (>200 spots/100,000 cells)” value ([2]; Donor AP31) read?
The value was “VLKKKLSEA”.

With SLKINLNYA as the substance, how does the “BFA5 peptides inducing CTL lysis” value ([1]; Donor AP31) read?
The value was “SLKINLNYA”.

And the “BFA5 peptides eliciting high IFN-γ release (>200 spots/100,000 cells)” value ([2]; Donor AP10)?
The value was “SLKINLNYA”.

What about the “BFA5 peptides eliciting high IFN-γ release (>200 spots/100,000 cells)” value ([2]; Donor AP31) of the same substance?
The value was “SLKINLNYA”.

What does the source list for YLLHENCML?
BFA5 peptides inducing CTL lysis of pulsed cells ([1]; Donor AP10): YLLHENCML; BFA5 peptides eliciting high IFN-γ release (>200 spots/100,000 cells) ([2]; Donor AP10): YLLHENCML; BFA5 peptides eliciting high IFN-γ release (>200 spots/100,000 cells) ([2]; Donor AP31): YLLHENCML

Which results are given for “KLH-NYNNHLKNRIYQYEKEKAETENS ({KLH}-NYNNHLKNRIYQYEKEKAETENS) [CLP 2982]”?
IgG titer × 10^5 (after second Immunization) ([3]; Rb1): 64 × 10^5; IgG titer × 10^5 (after first Immunization) ([3]; Rb1): 2/2 × 10^5; IgG titer × 10^5 (after second Immunization) ([3]; Rb2): 32 × 10^5; IgG titer × 10^5 (after first Immunization) ([3]; Rb2): 2/2 × 10^5
